US20190249218A1, “Method, Medium and Kit for Detecting Multiple Aminoglycoside Resistance Including 16S rRNA Methylase Mediated Resistance in Gram-Negative Bacteria” (priority 2016, published 2019)
Converted amounts (≈) assume the structure as drawn. Where two headings read alike, the source gives them in different places.

What was measured:
P. aeruginosa = test: MIC by broth microdilution; type: cell-based, Pseudomonas aeruginosa
Experimental: (§1) MICs of amikacin and gentamicin were determined using the broth microdilution method in cation-adjusted Mueller-Hinton broth, as recommended by the Clinical Laboratory Standard Institute (CLSI) guidelines (8). Amikacin and gentamicin sulfate (Fluorochem, Dertbyshire, UK) were tested over a range of dilutions from 0.25 to 256 μg/ml. A final inoculum of 5.10^5 CFU/ml of each strain was distributed in the 96 wells tray (Sarstedt, Ntimbrecht, Germany). All experiments were repeated in triplicate and E. coli ATCC 25922 was used as quality control. According to the CLSI breakpoints (9), Enterobacteriaceae isolates with gentamicin MICs≤4 and amikacin MICs≤16 mg/L were categorized as susceptible, while those with gentamicin MICs≥16 and amikacin MICs≥64 mg/L were categorized as resistant.
(§2) MICs of amikacin and gentamicin were determined as described above in Example 1.

P. rettgeri = test: MIC by broth microdilution; type: cell-based, Providencia rettgeri; settings: AAC(2′)
Experimental: as §1, §2

Row | Compound | MIC (P. aeruginosa; Pseudomonas aeruginosa, strain 3655, P. aeruginosa, APH(3′)-I + ANT(2″), read-out: MIC) [µg/mL] | MIC (P. aeruginosa; Pseudomonas aeruginosa, strain 3658, P. aeruginosa, APH(3′)-I + ANT(4′)-II, read-out: MIC) [µg/mL] | MIC (P. aeruginosa; Pseudomonas aeruginosa, strain 28233, P. aeruginosa, APH(3′)-I + AAC(3)-I, read-out: MIC) [µg/mL] | MIC (P. aeruginosa; Pseudomonas aeruginosa, strain R191, P. aeruginosa, susceptible, read-out: MIC) [µg/mL] | MIC (P. rettgeri; Providencia rettgeri, isolate 531, P. rettgeri, read-out: MIC) [µg/mL] | Amikacin Phenotype (P. rettgeri; isolate 531, P. rettgeri) | MIC (P. rettgeri; strain 531, P. rettgeri) [µg/mL] | MIC (P. aeruginosa; strain 3655, P. aeruginosa, APH(3′)-I + ANT(2″)) [µg/mL] | MIC (P. aeruginosa; strain 3656, P. aeruginosa, APH(3′)-I + ANT(4′)-II) [µg/mL] | MIC (P. aeruginosa; strain 3658, P. aeruginosa, APH(3′)-I + ANT(4′)-II) [µg/mL] | MIC (P. aeruginosa; strain 28233, P. aeruginosa, APH(3′)-I + AAC(3)-I) [µg/mL] | MIC (P. aeruginosa; strain R191, P. aeruginosa, susceptible) [µg/mL] | Gentamicin Phenotype (P. rettgeri; isolate 531, P. rettgeri) | MIC (P. rettgeri; isolate 531, P. rettgeri) [µg/mL]
1 | NCC[C@H](O)C(=O)N[C@@H]1C[C@H](N)[C@@H](O[C@H]2O[C@H](CN)[C@@H](O)[C@H](O)[C@H]2O)[C@H](O)[C@H]1O[C@H]1O[C@H](CO)[C@@H](O)[C@H](N)[C@H]1O [Amikacin] | 1 | > 128 | 4 | 8 (≈ 13.7 µM) | 16 (≈ 27.3 µM) | S (amikacin MICs≤16 mg/L were categorized as susceptible) | 16 (≈ 27.3 µM) | – | – | – | – | – | – | –
2 | Gentamicin | – | – | – | – | – | – | 4 | 4 | 8 | 4 | 1 | 2 | S (gentamicin MICs≤4) | 4
